Results on one compound are retold here after US20050215635A1, “Diarylheptanoid compounds and uses thereof” (priority 2004, published 2005).

The test system of the assay is p44/42 MAPK phosphorylation. Kind of assay: Western blotting of LPS induced phosphorylation of p44/42 MAPK in RAW 264.7 cells. The note with it: HMP 25 μM + LPS (0.5 μg/ml), RAW 264.7, 30 min (not at 60 min). The format is cell-based, mouse. The procedure:
FIG. 5A and 5B. Effect of HMP on LPS induced MAPKs activation. FIG. 5A, Total protein lysates of RAW 264.7 were prepared after treatment with HMP and/or LPS for indicated times and 40 μg of protein lysates were resolved and probed for phosphorylated (pp44/42 and pp38) and basal p44/42 and p38, using specific monoclonal antibodies as described in material and methods. FIG. 5B, Integrated density of phosphorylated p44/42 (pp44/42) as measured by Scion software. This experiment was repeated 4 times with similar results.
At indicated time points, cells were rapidly washed with ice-cold PBS and solubilized in cold lysis buffer containing 10 mM Tris-base, 5 mM EDTA, 50 mM NaCl, 1% Triton X-100, 5 mM phenylmethylsulfonyl fluoride (PMSF), 2 mM sodium orthovanadate, 10 μg/ml leupeptin, 25 μg/ml aprotinin, 1 mM sodium pyrophosphate, and 20% glycerol. […]
Equal amount of protein (40 μg) from each sample was loaded on SDS-polyacrylamide electrophoresis gel (8 and 10% separating gels for iNOS and p42/44^MAPK, respectively) and resolved for 1.5 h at 120 V in buffer containing 95 mM Tris-HCl, 960 mM glycine, and 0.5% SDS. […] Specific bands were detected by enhanced chemiluminescence's detection system (Amersham-Pharmacia biotech, NJ, USA) and the membrane was exposed to X-ray film. […]

Regarding `COc1cc(CC/C=C/C(=O)CCc2ccccc2)ccc1O` [AO-4, 7-(4″-hydroxy-3″-methoxyphenyl)-1-phenyl-hept-4-en-3-one], the “LPS-induced phosphorylation of p44/42 MAPK (in words)” value was “markedly inhibited”.
